# Experimental data published in publication PMC5635289, “Differential Effects of Angelicin Analogues on NF-κB Activity and IL-8 Gene Expression in Cystic Fibrosis IB3-1 Cells” (Mediators of Inflammation, 2017).
# How the values were obtained:
# IB3-1 cells = assay: Cell proliferation assay on IB3-1 cells; format: cell-based; conditions: Homo sapiens, cell number/ml after 48 h of treatment
# Protocol: Monolayers of 60% confluent IB3-1 cells were seeded in 24- or 12-well plates in LHC-8 medium in the presence of 5% FBS. After 24 h, TMA derivatives were added at serial dilutions and incubated for further 2-3 days. The effects of compounds (TMA derivatives) on the cell proliferation were analyzed as elsewhere described. A first analysis was performed with serial dilutions to obtain 50 μM, 200 μM, and 800 μM solutions. In order to determine IC50 values, the following concentrations were used 12.5, 25, 50, 100, 200, and 800 μM. In order to prepare the cells for counting, they were washed with PBS 1X and detached with trypsin/EDTA. Cells were suspended in physiological solution and counted with a Z2 Coulter Counter (Coulter Electronics, Hialeah, FL, USA). The cell number/ml was determined as IC50 after 2 days of culture, when untreated cells are in log phase of cell growth.
# In order to obtain preliminary information on the biological properties of TMA derivatives, their effects on cell growth were examined on IB3-1 cell line, excellent biological model to study new potential anti-inflammatory molecules. The use of this cell line to study the expression of proinflammatory molecules under a variety of stimuli is well established. Monolayers of 60% confluent IB3-1 cells were seeded in 12-well plate in LHC-8 medium with 5% FBS. After 24 h, compounds were added at different concentrations and the cell number/ml was determined after further 48 h of culture.
# IL-8 = assay: Bioplex analysis of IL-8 release in TNF-α-induced IB3-1 cells; format: cell-based, human; conditions: 1 μM, compared to untreated TNF-α-stimulated IB3-1 cells, 5 h pretreatment then TNF-α 24 h
# Protocol: (§1) The Bioplex cytokine assay is designed for the multiplexed quantitative measurement of multiple cytokines in a single well using as little as 50 μl of sample. In our experiments, the premixed multiplex beads (27-plex) of the Bioplex human cytokines were used. 50 μl of cytokine standards or samples (supernatants recovered from treated cells and diluted to 2 μg/μl) were incubated with 50 μl of anticytokine conjugated beads in 96-well filter plates for 30 min at room temperature with shaking. Plates were washed by vacuum filtration three times with 100 μl of Bioplex wash buffer, 25 μl of diluted detection antibody were added, and plates were incubated for 30 min at room temperature with shaking. After three filter washes, 50 μl of streptavidin-phycoerythrin were added, and the plates were incubated for 10 min at room temperature with shaking. Finally, plates were washed by vacuum filtration three times, beads were suspended in Bioplex assay buffer, and samples were analyzed on a Bio-Rad 96-well plate reader using the Bioplex Suspension Array System and Bioplex Manager software (Bio-Rad Laboratories Inc., Hercules, CA).
# (§2) In order to verify the effects on the secretion of IL-8 by IB3-1 cells, Luminex technology was employed to detect and quantify proteins secreted into the medium. […]
# IP-10 = assay: Bioplex analysis of IP-10 secretion in TNF-α-induced IB3-1 cells; format: cell-based, human; conditions: 1 μM, TNF-α-stimulated IB3-1 cells, three independent experiments
# Protocol: as §1, §2
# [1] = tested on: other cytokines, chemokines, and growth factors; assay: Bioplex analysis of other secreted proteins in TNF-α-induced IB3-1 cells; format: cell-based, human; conditions: 1 μM, TNF-α-stimulated IB3-1 cells, all secreted proteins analyzed except IP-10
# Protocol: as §1, §2
compound,measurement,setting,value
Cc1oc2c(C)cc3c(C)cc(=O)oc3c2c1C [Compound 1],IC50,IB3-1 cells,> 800 µM
same,Reduction of IL-8 secretion,IL-8,about 50%
same,Increase of TNF-α-inducible IP-10,IP-10,more than twofold
same,Variation of other secreted proteins,[1],less than 10%
